Literature values in patent publication US11304902B2, “Pharmaceutical compositions, preparation and uses thereof” (CURADIGM SAS, priority 2014, dated 2022).
“Also recorded” adds a separate entry of the source. Where two headings read alike, the source gives them in different places.

What was measured:
Conditions in all cases: human CYP enzyme
CYP1A1 = target: T1, CYP1A1 (Homo sapiens, UniProt P04798)
T1 sequence (P04798 1-512): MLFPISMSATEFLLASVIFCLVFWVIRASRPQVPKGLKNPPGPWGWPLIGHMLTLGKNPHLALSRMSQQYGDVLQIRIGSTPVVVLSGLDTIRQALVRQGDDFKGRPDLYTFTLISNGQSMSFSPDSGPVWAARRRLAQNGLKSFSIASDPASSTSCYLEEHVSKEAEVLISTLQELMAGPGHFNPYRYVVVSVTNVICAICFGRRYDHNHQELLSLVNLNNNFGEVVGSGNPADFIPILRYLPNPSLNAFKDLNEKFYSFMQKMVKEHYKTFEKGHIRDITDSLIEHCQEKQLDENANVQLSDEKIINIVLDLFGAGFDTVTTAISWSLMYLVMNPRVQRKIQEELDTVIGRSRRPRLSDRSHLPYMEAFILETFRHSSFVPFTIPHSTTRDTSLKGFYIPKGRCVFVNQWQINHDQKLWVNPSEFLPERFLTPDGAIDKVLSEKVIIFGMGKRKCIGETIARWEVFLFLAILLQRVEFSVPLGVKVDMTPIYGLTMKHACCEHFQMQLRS

CYP3A4 = CYP3A4 (Homo sapiens, UniProt P08684)
CYP1B1 = target: T2, CYP1B1 (Homo sapiens, UniProt Q16678)
T2 sequence (Q16678 1-543): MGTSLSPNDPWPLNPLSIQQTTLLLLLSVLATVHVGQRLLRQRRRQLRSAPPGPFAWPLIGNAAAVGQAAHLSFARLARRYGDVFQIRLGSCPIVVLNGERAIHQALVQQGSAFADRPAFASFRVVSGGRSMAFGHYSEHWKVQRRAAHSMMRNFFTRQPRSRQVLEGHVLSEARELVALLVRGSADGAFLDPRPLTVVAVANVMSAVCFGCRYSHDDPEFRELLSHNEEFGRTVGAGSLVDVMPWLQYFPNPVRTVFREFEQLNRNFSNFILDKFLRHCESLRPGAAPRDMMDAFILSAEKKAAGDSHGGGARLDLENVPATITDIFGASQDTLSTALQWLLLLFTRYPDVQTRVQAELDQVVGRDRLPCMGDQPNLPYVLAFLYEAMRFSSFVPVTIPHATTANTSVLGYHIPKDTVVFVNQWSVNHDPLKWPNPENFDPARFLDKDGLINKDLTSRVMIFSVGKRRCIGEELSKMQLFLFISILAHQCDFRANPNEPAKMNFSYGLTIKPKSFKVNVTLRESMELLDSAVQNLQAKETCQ

CYP2B6 = target: T3, CYP2B6 (Homo sapiens, UniProt P20813)
T3 sequence (P20813 1-491): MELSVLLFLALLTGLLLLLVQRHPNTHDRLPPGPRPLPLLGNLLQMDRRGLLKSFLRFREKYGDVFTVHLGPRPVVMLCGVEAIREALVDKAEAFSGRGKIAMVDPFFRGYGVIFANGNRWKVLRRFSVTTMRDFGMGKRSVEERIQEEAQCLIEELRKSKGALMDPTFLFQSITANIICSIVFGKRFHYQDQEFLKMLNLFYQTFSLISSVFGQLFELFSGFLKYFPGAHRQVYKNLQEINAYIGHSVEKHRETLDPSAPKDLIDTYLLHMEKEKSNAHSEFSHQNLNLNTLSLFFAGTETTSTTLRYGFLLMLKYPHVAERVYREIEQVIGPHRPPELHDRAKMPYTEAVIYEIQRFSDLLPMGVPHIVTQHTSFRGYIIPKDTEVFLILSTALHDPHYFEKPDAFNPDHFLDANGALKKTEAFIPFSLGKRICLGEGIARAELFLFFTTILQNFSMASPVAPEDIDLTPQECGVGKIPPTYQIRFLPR

CYP2C8 = target: T4, CYP2C8 (Homo sapiens, UniProt P10632)
T4 sequence (P10632 1-490): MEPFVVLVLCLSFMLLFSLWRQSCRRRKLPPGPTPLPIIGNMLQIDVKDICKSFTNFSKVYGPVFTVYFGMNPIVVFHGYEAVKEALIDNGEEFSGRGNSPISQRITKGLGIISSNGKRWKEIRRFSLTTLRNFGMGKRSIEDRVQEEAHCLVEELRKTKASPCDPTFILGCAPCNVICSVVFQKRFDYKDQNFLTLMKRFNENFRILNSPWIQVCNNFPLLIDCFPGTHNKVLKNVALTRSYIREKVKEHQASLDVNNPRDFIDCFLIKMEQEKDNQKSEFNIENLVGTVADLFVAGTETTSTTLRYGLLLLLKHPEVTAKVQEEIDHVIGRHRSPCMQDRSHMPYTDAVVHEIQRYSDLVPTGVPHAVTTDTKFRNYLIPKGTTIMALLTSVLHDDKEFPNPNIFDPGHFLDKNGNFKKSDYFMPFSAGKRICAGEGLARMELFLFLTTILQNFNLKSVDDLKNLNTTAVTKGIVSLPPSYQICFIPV

CYP2D6 = CYP2D6 (Homo sapiens, UniProt P10635)
CYP11B1 = target: T5, CYP11B1 (Homo sapiens, UniProt P15538)
T5 sequence (P15538 25-503): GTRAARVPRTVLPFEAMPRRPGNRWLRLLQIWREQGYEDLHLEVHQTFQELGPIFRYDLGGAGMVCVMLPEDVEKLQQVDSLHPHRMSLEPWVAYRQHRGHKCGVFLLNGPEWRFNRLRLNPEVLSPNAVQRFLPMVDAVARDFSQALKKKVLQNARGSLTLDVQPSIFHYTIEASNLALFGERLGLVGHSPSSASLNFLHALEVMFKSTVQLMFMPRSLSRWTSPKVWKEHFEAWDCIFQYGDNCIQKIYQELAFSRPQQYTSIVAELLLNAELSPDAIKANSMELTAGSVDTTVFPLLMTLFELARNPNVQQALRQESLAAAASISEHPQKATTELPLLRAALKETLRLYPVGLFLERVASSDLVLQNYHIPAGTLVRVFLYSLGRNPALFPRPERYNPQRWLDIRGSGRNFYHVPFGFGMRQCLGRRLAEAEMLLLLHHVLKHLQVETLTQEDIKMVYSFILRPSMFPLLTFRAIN

CYP2C18 = target: T6, CYP2C18 (Homo sapiens, UniProt P33260)
T6 sequence (P33260 26-490): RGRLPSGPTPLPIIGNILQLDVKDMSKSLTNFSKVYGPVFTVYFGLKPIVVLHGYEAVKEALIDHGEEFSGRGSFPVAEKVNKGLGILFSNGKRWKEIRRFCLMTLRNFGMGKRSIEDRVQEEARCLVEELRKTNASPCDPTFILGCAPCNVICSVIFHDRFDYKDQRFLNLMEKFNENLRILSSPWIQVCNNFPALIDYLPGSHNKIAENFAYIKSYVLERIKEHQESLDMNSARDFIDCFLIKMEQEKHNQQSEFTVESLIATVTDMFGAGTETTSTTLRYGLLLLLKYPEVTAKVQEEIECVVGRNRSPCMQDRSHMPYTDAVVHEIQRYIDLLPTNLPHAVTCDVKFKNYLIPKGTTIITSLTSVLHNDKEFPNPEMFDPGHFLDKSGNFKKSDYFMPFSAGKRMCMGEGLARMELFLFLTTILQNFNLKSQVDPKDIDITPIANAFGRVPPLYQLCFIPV

CYP2C9 = CYP2C9 (Homo sapiens, UniProt P11712)
CYP2C19 = CYP2C19 (Homo sapiens, UniProt P33261)
CYP1A2 = target: T7, CYP1A2 (Homo sapiens, UniProt P05177)
T7 sequence (P05177 1-516): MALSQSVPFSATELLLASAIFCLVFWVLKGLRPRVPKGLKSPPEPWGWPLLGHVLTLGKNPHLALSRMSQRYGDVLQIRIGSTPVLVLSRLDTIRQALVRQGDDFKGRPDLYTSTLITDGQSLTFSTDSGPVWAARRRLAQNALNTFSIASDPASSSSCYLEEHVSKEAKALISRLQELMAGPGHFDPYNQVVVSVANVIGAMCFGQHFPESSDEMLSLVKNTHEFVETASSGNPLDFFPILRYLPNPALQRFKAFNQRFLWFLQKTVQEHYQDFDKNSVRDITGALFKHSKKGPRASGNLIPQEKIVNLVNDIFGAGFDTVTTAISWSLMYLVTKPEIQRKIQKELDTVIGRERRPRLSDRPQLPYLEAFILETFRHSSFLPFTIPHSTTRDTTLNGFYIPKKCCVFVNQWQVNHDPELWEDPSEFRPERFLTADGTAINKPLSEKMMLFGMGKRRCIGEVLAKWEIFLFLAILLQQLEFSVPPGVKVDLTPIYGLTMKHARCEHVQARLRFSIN

CYP19 = target: T8, CYP19 (Homo sapiens, UniProt P11511)
T8 sequence (P11511 1-503): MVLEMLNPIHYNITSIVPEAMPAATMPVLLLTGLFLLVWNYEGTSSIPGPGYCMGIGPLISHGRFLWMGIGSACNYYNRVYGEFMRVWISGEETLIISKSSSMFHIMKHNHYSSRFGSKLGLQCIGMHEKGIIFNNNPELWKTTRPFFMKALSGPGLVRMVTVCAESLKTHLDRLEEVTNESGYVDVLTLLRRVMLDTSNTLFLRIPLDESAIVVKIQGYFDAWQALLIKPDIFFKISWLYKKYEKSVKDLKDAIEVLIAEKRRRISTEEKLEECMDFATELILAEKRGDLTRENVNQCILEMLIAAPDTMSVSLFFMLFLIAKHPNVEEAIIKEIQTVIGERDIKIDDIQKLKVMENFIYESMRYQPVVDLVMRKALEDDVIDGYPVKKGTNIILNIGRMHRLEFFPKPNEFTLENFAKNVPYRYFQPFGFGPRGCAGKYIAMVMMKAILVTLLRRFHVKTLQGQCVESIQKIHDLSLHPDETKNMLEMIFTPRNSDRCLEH

CYP2D6, sequence (P10635 whole entry): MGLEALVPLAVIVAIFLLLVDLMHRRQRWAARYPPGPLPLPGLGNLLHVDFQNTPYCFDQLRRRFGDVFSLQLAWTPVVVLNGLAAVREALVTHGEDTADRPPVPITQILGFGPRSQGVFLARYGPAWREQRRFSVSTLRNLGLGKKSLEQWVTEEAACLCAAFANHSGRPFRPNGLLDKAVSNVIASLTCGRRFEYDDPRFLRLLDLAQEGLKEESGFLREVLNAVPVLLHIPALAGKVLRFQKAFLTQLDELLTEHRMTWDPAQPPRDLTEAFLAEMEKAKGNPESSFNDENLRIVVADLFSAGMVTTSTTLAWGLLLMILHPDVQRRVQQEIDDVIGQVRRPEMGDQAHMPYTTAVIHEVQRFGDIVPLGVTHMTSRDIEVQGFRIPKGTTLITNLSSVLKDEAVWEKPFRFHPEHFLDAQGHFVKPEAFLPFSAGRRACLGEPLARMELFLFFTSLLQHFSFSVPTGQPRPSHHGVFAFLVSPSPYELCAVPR
CYP3A4, sequence (P08684 whole entry): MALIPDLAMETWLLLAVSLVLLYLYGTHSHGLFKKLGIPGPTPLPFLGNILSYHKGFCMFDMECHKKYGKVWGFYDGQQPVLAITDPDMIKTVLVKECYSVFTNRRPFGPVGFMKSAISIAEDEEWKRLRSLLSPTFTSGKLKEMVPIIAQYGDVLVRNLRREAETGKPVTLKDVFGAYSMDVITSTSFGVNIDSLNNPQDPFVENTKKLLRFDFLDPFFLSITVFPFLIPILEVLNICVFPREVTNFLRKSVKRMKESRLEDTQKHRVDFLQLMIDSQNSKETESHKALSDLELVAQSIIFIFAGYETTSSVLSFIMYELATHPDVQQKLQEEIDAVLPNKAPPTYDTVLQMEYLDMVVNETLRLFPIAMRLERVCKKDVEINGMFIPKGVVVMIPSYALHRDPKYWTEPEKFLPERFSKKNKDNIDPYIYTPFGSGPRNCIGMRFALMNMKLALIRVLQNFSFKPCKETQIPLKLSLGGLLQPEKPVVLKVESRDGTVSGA
CYP2C19, sequence (P33261 whole entry): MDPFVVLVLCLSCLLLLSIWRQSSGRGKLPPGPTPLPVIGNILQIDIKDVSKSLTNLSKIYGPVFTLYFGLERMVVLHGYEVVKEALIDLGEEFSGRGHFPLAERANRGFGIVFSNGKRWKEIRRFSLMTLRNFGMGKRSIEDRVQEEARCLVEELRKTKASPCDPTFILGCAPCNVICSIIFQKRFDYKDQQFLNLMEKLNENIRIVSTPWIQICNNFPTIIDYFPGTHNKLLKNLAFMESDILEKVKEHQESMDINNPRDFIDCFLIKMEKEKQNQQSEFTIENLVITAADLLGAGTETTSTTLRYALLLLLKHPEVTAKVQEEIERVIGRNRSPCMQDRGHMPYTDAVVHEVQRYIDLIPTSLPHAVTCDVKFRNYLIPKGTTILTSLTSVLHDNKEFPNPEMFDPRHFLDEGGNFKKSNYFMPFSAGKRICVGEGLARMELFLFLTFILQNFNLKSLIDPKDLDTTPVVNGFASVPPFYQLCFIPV
CYP2C9, sequence (P11712 whole entry): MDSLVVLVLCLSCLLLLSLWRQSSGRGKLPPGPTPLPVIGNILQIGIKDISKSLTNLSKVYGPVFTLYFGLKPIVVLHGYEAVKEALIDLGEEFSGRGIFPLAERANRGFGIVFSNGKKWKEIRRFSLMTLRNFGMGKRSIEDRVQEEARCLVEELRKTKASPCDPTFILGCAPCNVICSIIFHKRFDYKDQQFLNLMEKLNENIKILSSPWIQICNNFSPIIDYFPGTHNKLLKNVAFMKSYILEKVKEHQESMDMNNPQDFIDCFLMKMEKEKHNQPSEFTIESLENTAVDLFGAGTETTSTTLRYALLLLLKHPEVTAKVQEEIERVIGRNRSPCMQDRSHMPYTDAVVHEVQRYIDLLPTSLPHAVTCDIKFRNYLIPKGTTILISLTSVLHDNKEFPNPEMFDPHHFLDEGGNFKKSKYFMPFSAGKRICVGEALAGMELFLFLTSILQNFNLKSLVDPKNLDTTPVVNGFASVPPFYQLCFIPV

Row | SMILES | role towards CYP1A1 (substrate / inhibitor / inducer) (CYP1A1) | role towards CYP3A4 (substrate / inhibitor / inducer) (CYP3A4) | role towards CYP2B6 (substrate / inhibitor / inducer) (CYP2B6) | role towards CYP2C8 (substrate / inhibitor / inducer) (CYP2C8) | role towards CYP2D6 (substrate / inhibitor / inducer) (CYP2D6) | other results
1 | CC(=O)O[C@H]1C(=O)[C@@]2(C)[C@H]([C@H](OC(=O)c3ccccc3)[C@]3(O)C[C@H](OC(=O)[C@H](O)[C@@H](NC(=O)c4ccccc4)c4ccccc4)C(C)=C1C3(C)C)[C@]1(OC(C)=O)CO[C@@H]1C[C@@H]2O [Paclitaxel, paclitaxel] | – | Substrate; also recorded: inhibitor | – | – | – | –
2 | CC(=O)O[C@@]12CO[C@@H]1C[C@H](O)[C@@]1(C)C(=O)[C@H](O)C3=C(C)[C@@H](OC(=O)[C@H](O)[C@@H](NC(=O)OC(C)(C)C)c4ccccc4)C[C@@](O)([C@@H](OC(=O)c4ccccc4)[C@H]21)C3(C)C [Docetaxel, docetaxel] | – | Substrate | – | – | – | role towards CYP1B1 (substrate / inhibitor / inducer) (CYP1B1): Substrate; also recorded: inhibitor; role towards CYP3A4 (substrate / inhibitor / inducer) (CYP3A4; listed as docetaxel): substrate
3 | CC1=C(/C=C/C(C)=C/C=C/C(C)=C/CO)C(C)(C)CCC1 [Vitamin A retinol, retinol] | Inhibitor | – | Inhibitor | Inhibitor; also recorded: Substrate | Substrate | –
4 | CO[C@H]1/C=C/O[C@@]2(C)Oc3c(C)c(O)c4c(O)c(c(/C=N/N5CCN(C)CC5)c(O)c4c3C2=O)NC(=O)/C(C)=C\C=C\[C@H](C)[C@H](O)[C@@H](C)[C@@H](O)[C@@H](C)[C@H](OC(C)=O)[C@@H]1C [Rifampin, rifampin] | – | – | inducer | – | – | role towards CYP2C18 (substrate / inhibitor / inducer) (CYP2C18): inducer
5 | CC(=O)CC(c1ccccc1)c1c(O)c2ccccc2oc1=O (stereo not drawn) [Warfarin, warfarin] | Substrate | Substrate | – | Substrate | – | role towards CYP1A2 (substrate / inhibitor / inducer) (CYP1A2): Substrate; role towards CYP2C18 (substrate / inhibitor / inducer) (CYP2C18): Substrate
6 | COc1cccc2c1C(=O)c1c(O)c3c(c(O)c1C2=O)C[C@@](O)(C(=O)CO)C[C@@H]3O[C@H]1C[C@H](N)[C@H](O)[C@H](C)O1 [Doxorubicin, doxorubicin] | – | Substrate; also recorded: inhibitor | – | – | inhibitor | –

Continued, in another order:

Row | role towards CYP1A1 (substrate / inhibitor / inducer) (CYP1A1) | role towards CYP3A4 (substrate / inhibitor / inducer) (CYP3A4) | role towards CYP2B6 (substrate / inhibitor / inducer) (CYP2B6) | role towards CYP2C8 (substrate / inhibitor / inducer) (CYP2C8) | role towards CYP2D6 (substrate / inhibitor / inducer) (CYP2D6) | SMILES | other results
7 | Inhibitor | – | – | – | – | O=c1cc(-c2ccc(O)cc2)oc2cc(O)cc(O)c12 [Apigenin, apigenin] | –
8 | – | inhibitor | – | – | – | O=C1C[C@@H](c2ccc(O)cc2)Oc2cc(O)cc(O)c21 [Naringenin, naringenin] | role towards CYP11B1 (substrate / inhibitor / inducer) (CYP11B1): Inhibitor
9 | – | – | Substrate; also recorded: inhibitor | – | inhibitor | O=C1Nc2ccc(Cl)cc2[C@@](C#CC2CC2)(C(F)(F)F)O1 [Efavirenz, efavirenz] | role towards CYP2C9 (substrate / inhibitor / inducer) (CYP2C9): inhibitor; role towards CYP2C19 (substrate / inhibitor / inducer) (CYP2C19): inhibitor
10 | Inhibitor | Inhibitor | – | Inhibitor | – | O=c1c(O)c(-c2ccc(O)c(O)c2)oc2cc(O)cc(O)c12 [Quercetin, quercetin] | role towards CYP1A2 (substrate / inhibitor / inducer) (CYP1A2): Inhibitor; role towards CYP11B1 (substrate / inhibitor / inducer) (CYP11B1): Inhibitor; role towards CYP19 (substrate / inhibitor / inducer) (CYP19): Inhibitor
